Data set [1] concerns HepG2 cells. Particulars: cited from earlier work; call rule not given here.
Data set [2] deals with HepG2 cells. In words: cells. Conditions: Homo sapiens; for IC50: HepG2, read-out: MMP assays IC50 (µM) HepG2; for Emax: HepG2, read-out: MMP assays efficacy (%) HepG2.
In a further data set the test system is rat primary hepatocytes. In words: MMP assay in rat primary hepatocytes. Particulars: for IC50: Rattus norvegicus, Hepatocyte, read-out: MMP assays IC50 (µM) Rat Hepatocytes.
Setting [3] is: read-out: MMP assays IC50 (µM), qHTS-HepG2.
Where [4] appears, read: rat hepatocytes, mean ± SD of three experiments.
Where [5] appears, read: read-out: MMP assays IC50 (µM) qHTS-HepG2.

The source of these data is publication PMC6112376, “Comprehensive Analyses and Prioritization of Tox21 10K Chemicals Affecting Mitochondrial Function by in-Depth Mechanistic Studies” (Environmental Health Perspectives, 2018).

Broadly, the IC50 is the point on the concentration scale where inhibition reaches its midpoint.

Like-named read-outs stand apart in the source and are kept apart here.

Take `COc1ccc(/C=C/C(=O)c2ccc(OC)cc2OC)cc1` [Metochalcone]: the “MMP assays efficacy (%) qHTS-HepG2” value in the data set on HepG2 cells [1] is given as -72±12%. Moreover, the figures for the IC50 in the data set on HepG2 cells [1] (setting [3]), with HepG2 cells [2] and in the data set with rat primary hepatocytes were 18.2 ± 10.1 µM, 39.8 µM and 25.5 ± 18.2 µM, respectively. Besides, the Emax in the data set with HepG2 cells [2] was determined as 119%. For the same molecule, in the data set with rat primary hepatocytes (setting [4]), the “MMP assays efficacy (%) Rat Hepatocytes” value is given as -82±19%.

For `Nc1cc(Cl)c(O)c(Cl)c1` [4-Amino-2,6-dichlorophenol], in the data set with HepG2 cells [1], the “MMP assays efficacy (%) qHTS-HepG2” value was -97±9%. For the same molecule, the IC50 in the data set on HepG2 cells [1] (setting [5]) is 17.2 ± 13.4 µM; in the data set on HepG2 cells [2] it was 15.8 µM; with rat primary hepatocytes it was 29.6 ± 27.8 µM. The Emax with HepG2 cells [2] was found to be 120%. Besides, in the data set with rat primary hepatocytes (setting [4]), the “MMP assays efficacy (%) Rat Hepatocytes” value is on record as -57±8%.

For `CSc1nc2cc(Cl)c(Oc3cccc(Cl)c3Cl)cc2[nH]1` [Triclabendazole], the “MMP assays efficacy (%) qHTS-HepG2” value with HepG2 cells [1] is on record as -114±15%. Further, the IC50 in the data set on HepG2 cells [1] (setting [3]) is 1.84 ± 0.15 µM; in the data set with HepG2 cells [2] it was 5.48 µM; in the data set on rat primary hepatocytes, 15.6 ± 2.52 µM. Besides, in the data set on HepG2 cells [2], the Emax came out at 97%. In the data set on rat primary hepatocytes (setting [4]), the “MMP assays efficacy (%) Rat Hepatocytes” value was -91±10%.

Consider `N#CC(C#N)=Cc1ccc(O)c(O)c1` [Tyrphostin 23], for which the “MMP assays efficacy (%) qHTS-HepG2” value in the data set on HepG2 cells [1] was -107±6%. Also, the IC50 in the data set on HepG2 cells [1] (setting [3]) was 17.7 ± 6.46 µM. Further, in the data set with HepG2 cells [2], the concentration for half-maximal inhibition (IC50) came to 17.3 µM and the Emax came out at 103%. In the data set with rat primary hepatocytes (setting [4]), the “MMP assays IC50 (µM) Rat Hepatocytes” value was “inactive” and the “MMP assays efficacy (%) Rat Hepatocytes” value was “inactive”.

In the case of `Cc1cc(O)c2c(O)c3c(O)cccc3cc2c1` [Chrysarobin], the “MMP assays efficacy (%) qHTS-HepG2” value in the data set on HepG2 cells [1] is -105±7%. Further, the figures for the IC50 in the data set with HepG2 cells [1] (setting [5]), with HepG2 cells [2] and in the data set on rat primary hepatocytes were 22.8 ± 3.93 µM, 30.8 µM and 19.3 ± 8.27 µM, respectively. Further, the Emax with HepG2 cells [2] worked out at 90%. Besides, in the data set with rat primary hepatocytes (setting [4]), the “MMP assays efficacy (%) Rat Hepatocytes” value was -52±8%.

Regarding `O=C(Nc1ccc(Cl)cc1)Nc1ccc(Cl)c(C(F)(F)F)c1` [Cloflucarban], the “MMP assays efficacy (%) qHTS-HepG2” value in the data set on HepG2 cells [1] is on record as -113±9%. Besides, the figures for the half-inhibitory concentration (IC50) in the data set with HepG2 cells [1] (setting [5]), with HepG2 cells [2] and in the data set with rat primary hepatocytes were 0.6 µM, 0.44 µM and 0.58 ± 0.05 µM, respectively. For the same molecule, the Emax in the data set with HepG2 cells [2] stood at 85%. In addition, in the data set with rat primary hepatocytes (setting [4]), the “MMP assays efficacy (%) Rat Hepatocytes” value is on record as -95±5%.

For the molecule `Oc1ccc(Sc2ccc(O)cc2)cc1` [4,4'-Thiodiphenol], the “MMP assays efficacy (%) qHTS-HepG2” value in the data set with HepG2 cells [1] was -100±12%. Moreover, the figures for the half-inhibitory concentration (IC50) in the data set on HepG2 cells [1] (setting [5]), with HepG2 cells [2] and in the data set on rat primary hepatocytes were 21.1 ± 2.7 µM, 25.1 µM and 24.7 ± 9.79 µM, respectively. Also, in the data set on HepG2 cells [2], the Emax was found to be 115%. The “MMP assays efficacy (%) Rat Hepatocytes” value in the data set with rat primary hepatocytes (setting [4]) is -49±9%.

For `Cc1cccc(Nc2ccccc2)c1` [Compound 3-Methyl-N-phenylaniline], the “MMP assays efficacy (%) qHTS-HepG2” value in the data set on HepG2 cells [1] was -93±25%. In addition, the 50% inhibitory concentration (IC50) was 48.6 ± 5.61 µM in the data set on HepG2 cells [1] (setting [5]), 28.2 µM in the data set on HepG2 cells [2] and 35.5 µM in the data set on rat primary hepatocytes. Further, the Emax in the data set with HepG2 cells [2] is 66%. Further, in the data set with rat primary hepatocytes (setting [4]), the “MMP assays efficacy (%) Rat Hepatocytes” value is on record as -74±25%.

Turning to `O=C(c1ccccc1)c1ccc(O)cc1` [Compound 4-Hydroxybenzophenone], the “MMP assays efficacy (%) qHTS-HepG2” value in the data set on HepG2 cells [1] is -87±12%. In addition, the IC50 with HepG2 cells [1] (setting [5]) is 41.3 ± 18.1 µM; in the data set with HepG2 cells [2] it was 28.2 µM; in the data set with rat primary hepatocytes, 17.8 ± 28 µM. The Emax in the data set on HepG2 cells [2] was determined as 116%. Further, in the data set with rat primary hepatocytes (setting [4]), the “MMP assays efficacy (%) Rat Hepatocytes” value was -82±39%.

Turning to `Nc1ccc(N)c([N+](=O)[O-])c1` [2-Nitro-1,4-phenylenediamine], the “MMP assays efficacy (%) qHTS-HepG2” value in the data set on HepG2 cells [1] is given as -85±13%. In addition, the IC50 with HepG2 cells [1] (setting [5]) was 7.07 ± 6.53 µM; with HepG2 cells [2], 12.6 µM. For the same molecule, in the data set with HepG2 cells [2], the Emax came out at 87%.

Turning to `Cc1cc(/C=C/c2ccc3cc(N(C)C)ccc3[n+]2C)c(C)n1-c1ccccc1` [Pyrvinium pamoate], in the data set with HepG2 cells [1], the “MMP assays efficacy (%) qHTS-HepG2” value is on record as -108±33%. Besides, the IC50 with HepG2 cells [1] (setting [3]) is 2.02 ± 1.2 µM. In the data set on HepG2 cells [2], the IC50 worked out at 0.17 µM and the Emax was 91%.

As for `O=C1CN(/N=C/c2ccc([N+](=O)[O-])o2)C(=O)N1` [Nitrofurantoin], the “MMP assays efficacy (%) qHTS-HepG2” value with HepG2 cells [1] is given as -70±6%. For the same molecule, in the data set with HepG2 cells [1] (setting [3]), the half-maximal inhibitory concentration (IC50) is 26.3 ± 6.35 µM. In addition, in the data set on HepG2 cells [2], the Emax came out at 87%.
